The text below walks through data of ChEMBL document CHEMBL3525951, “Reevaluation of the microsomal metabolism of montelukast: major contribution by CYP2C8 at clinically relevant concentrations” (Drug Metab Dispos, 2011).

One series deals with Liver microsome. Briefly: Drug level in human liver microsomes treated with montelukast at 0.02 to 0.4 uM preincubated for 3 mins followed by beta-NADPH addition by LC-MS analysis. The class given is ADME.
The target in series [1] is T1, Cytochrome P450 2C8 (Homo sapiens, UniProt P10632).
T1 sequence (P10632 whole entry): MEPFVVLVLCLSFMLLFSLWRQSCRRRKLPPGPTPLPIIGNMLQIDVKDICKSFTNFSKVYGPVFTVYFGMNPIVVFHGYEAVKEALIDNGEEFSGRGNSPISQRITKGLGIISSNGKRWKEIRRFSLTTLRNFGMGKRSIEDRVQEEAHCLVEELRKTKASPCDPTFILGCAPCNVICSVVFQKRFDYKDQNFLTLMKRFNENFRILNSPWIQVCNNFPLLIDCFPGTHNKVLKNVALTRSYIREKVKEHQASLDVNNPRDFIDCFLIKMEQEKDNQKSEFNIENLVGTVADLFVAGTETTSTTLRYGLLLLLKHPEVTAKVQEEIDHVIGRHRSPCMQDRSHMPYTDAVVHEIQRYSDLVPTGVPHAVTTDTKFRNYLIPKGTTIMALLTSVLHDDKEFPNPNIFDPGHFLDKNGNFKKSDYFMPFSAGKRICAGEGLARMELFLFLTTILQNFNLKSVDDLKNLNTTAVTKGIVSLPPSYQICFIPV
The series is described as follows: Activity of recombinant human CYP2C8 expressed in microsomes isolated from baculovirus infected insect cell assessed as enzyme-mediated compound formation treated with 2-(1-(((1R)-1-(3-(2-(7-chloroquinolin-2-yl)vinyl)phenyl)-3-(2-(1,2-dihydroxypropan-2-yl)phenyl)propylthio)methyl)cyclopropyl)acetic acid at 0.02 uM after 30 mins by LC-MS analysis. The class given is ADME. The settings on record: 0.5 h.

The target of another series is Cytochrome P450 2C9 (Homo sapiens, UniProt P11712). Briefly: Activity of recombinant human CYP2C9 expressed in microsomes isolated from baculovirus infected insect cell assessed as enzyme-mediated compound formation treated with montelukast at 1 uM after 60 mins by LC-MS analysis. The class given is ADME. The settings on record: 1 h.
For series [2], the target named is T1, Cytochrome P450 2C8. The series is described as follows: Activity of recombinant human CYP2C8 expressed in microsomes isolated from baculovirus infected insect cell assessed as enzyme-mediated compound formation treated with montelukast at 0.02 to 1 uM after 60 mins by LC-MS analysis. The class given is ADME. Conditions: 1 h.
A further series addresses Cytochrome P450 2C19 (Homo sapiens, UniProt P33261). The series is described as follows: Activity of recombinant human CYP2C19 expressed in microsomes isolated from baculovirus infected insect cell assessed as enzyme-mediated compound formation treated with montelukast at 1 uM after 60 mins by LC-MS analysis. The class given is ADME. The settings on record: 1 h.
For series [3], the target named is T1, Cytochrome P450 2C8. Briefly: Activity of recombinant human CYP2C8 expressed in microsomes isolated from baculovirus infected insect cell assessed as enzyme-mediated compound formation treated with montelukast at 0.02 to 0.1 uM after 3 mins by LC-MS analysis. Conditions: 0.05 h. The class given is ADME.
A further series has as its target Cytochrome P450 3A4 (Homo sapiens, UniProt P08684). The series is described as follows: Activity of recombinant human CYP3A4 expressed in microsomes isolated from baculovirus infected insect cell assessed as enzyme-mediated compound formation treated with montelukast at 1 uM after 60 mins by LC-MS analysis. The series is classed as ADME. Conditions: 1 h.
The next series addresses Cytochrome P450 3A5 (Homo sapiens, UniProt P20815). The series is described as follows: Activity of recombinant human CYP3A5 expressed in microsomes isolated from baculovirus infected insect cell assessed as enzyme-mediated compound formation treated with montelukast at 1 uM after 60 mins by LC-MS analysis. The class given is ADME. Conditions: 1 h.
Substrate in series [4]: CC(C)(O)c1ccccc1CC[C@@H](SCC1(CC(=O)O)CC1)c1cccc(/C=C/c2ccc3ccc(Cl)cc3n2)c1
The series is described as follows: cells, lysate or membranes named.

Sequence of Cytochrome P450 3A4 (P08684 whole entry): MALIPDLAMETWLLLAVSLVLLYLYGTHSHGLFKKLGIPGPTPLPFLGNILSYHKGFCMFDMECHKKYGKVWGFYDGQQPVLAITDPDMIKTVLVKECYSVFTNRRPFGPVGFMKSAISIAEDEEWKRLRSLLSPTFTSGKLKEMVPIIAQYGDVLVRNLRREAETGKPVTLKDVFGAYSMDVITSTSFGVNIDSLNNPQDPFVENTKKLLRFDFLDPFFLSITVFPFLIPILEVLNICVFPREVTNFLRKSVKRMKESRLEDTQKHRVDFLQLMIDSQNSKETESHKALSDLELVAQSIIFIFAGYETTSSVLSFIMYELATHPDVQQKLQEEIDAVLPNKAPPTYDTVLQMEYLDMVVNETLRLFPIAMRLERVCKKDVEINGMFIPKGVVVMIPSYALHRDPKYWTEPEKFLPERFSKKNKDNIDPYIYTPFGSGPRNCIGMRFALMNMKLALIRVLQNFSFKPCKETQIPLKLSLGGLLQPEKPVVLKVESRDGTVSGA
Sequence of Cytochrome P450 3A5 (P20815 whole entry): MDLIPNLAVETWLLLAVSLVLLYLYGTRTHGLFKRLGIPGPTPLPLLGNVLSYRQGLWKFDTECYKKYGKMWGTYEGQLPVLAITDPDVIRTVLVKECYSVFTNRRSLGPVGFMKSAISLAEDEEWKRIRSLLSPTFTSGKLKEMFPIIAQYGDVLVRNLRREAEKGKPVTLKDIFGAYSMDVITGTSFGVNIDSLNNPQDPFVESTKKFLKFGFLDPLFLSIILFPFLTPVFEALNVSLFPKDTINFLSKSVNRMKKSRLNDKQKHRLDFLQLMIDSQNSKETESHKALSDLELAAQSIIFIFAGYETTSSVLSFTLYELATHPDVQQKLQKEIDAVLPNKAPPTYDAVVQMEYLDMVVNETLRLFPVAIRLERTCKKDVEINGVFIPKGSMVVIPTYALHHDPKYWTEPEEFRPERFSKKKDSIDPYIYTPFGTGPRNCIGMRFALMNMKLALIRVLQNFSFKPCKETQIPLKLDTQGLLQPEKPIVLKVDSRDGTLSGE
Sequence of Cytochrome P450 2C19 (P33261 whole entry): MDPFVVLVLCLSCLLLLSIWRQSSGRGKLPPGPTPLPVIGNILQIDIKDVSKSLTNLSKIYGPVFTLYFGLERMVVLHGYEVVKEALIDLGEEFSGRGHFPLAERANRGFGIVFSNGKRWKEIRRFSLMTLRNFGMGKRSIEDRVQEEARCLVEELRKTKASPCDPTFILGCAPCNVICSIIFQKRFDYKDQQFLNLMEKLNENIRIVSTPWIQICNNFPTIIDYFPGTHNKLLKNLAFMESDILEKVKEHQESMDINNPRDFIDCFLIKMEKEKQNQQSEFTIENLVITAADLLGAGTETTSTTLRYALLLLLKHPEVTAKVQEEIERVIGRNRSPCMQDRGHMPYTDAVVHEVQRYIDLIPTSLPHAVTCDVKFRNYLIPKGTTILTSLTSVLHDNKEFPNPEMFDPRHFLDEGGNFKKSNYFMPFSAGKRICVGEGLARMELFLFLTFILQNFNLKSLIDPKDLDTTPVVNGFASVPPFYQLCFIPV

`CC(O)(C(=O)O)c1ccccc1CC[C@@H](SCC1(CC(=O)O)CC1)c1cccc(/C=C/c2ccc3ccc(Cl)cc3n2)c1` (stereo not given in full): the Drug metabolism entry in the series on Liver microsome and at Cytochrome P450 2C8 [1] was “metabolite_detected” in each case.

In the case of `CC(C)(O)c1cc(O)ccc1CC[C@@H](SCC1(CC(=O)O)CC1)c1cccc(/C=C/c2ccc3ccc(Cl)cc3n2)c1`, the Drug metabolism entry with Liver microsome, on Cytochrome P450 2C9, on Cytochrome P450 2C8 [2], on Cytochrome P450 2C19, at Cytochrome P450 2C8 [3] and on Cytochrome P450 3A4 was “metabolite_detected” in each case. The Drug metabolism entry on Cytochrome P450 3A5 is on record as “metabolite_detected”.

As for `CC(C)(O)c1ccccc1C(O)C[C@@H](SCC1(CC(=O)O)CC1)c1cccc(/C=C/c2ccc3ccc(Cl)cc3n2)c1` (stereo not given in full), the Drug metabolism entry in the series with Liver microsome, at Cytochrome P450 3A4 and at Cytochrome P450 3A5 was “metabolite_detected” each time.

For `CC(C)(O)c1ccccc1CC[C@H](c1cccc(/C=C/c2ccc3ccc(Cl)cc3n2)c1)[S+]([O-])CC1(CC(=O)O)CC1` (stereo not given in full), the Drug metabolism result in the series on Liver microsome is given as “metabolite_detected”.

B1: Cytochrome P450 2C9 (Homo sapiens) (protein)
chain: MDSLVVLVLCLSCLLLLSLWRQSSGRGKLPPGPTPLPVIGNILQIGIKDISKSLTNLSKVYGPVFTLYFGLKPIVVLHGYEAVKEALIDLGEEFSGRGIFPLAERANRGFGIVFSNGKKWKEIRRFSLMTLRNFGMGKRSIEDRVQEEARCLVEELRKTKASPCDPTFILGCAPCNVICSIIFHKRFDYKDQQFLNLMEKLNENIKILSSPWIQICNNFSPIIDYFPGTHNKLLKNVAFMKSYILEKVKEHQESMDMNNPQDFIDCFLMKMEKEKHNQPSEFTIESLENTAVDLFGAGTETTSTTLRYALLLLLKHPEVTAKVQEEIERVIGRNRSPCMQDRSHMPYTDAVVHEVQRYIDLLPTSLPHAVTCDIKFRNYLIPKGTTILISLTSVLHDNKEFPNPEMFDPHHFLDEGGNFKKSKYFMPFSAGKRICVGEALAGMELFLFLTSILQNFNLKSLVDPKNLDTTPVVNGFASVPPFYQLCFIPV
With B1, in series [4], the Michaelis-Menten constant (Km) stood at 0.19 µM and the Vmax is 1.1e-07 µmol/min.

As a reminder, the Km is the substrate concentration at which the rate is half of its maximum. Usually Vmax stands for the top rate of the reaction or transport when substrate is in excess.
